Source: patent US20210163412A1, “NOVEL SULFONEUREA COMPOUNDS” (Inflazome Limited, priority 2018, published 2021)

How the values were obtained:
NLRP3 [1] = molecular target: T1, NLRP3 (Homo sapiens, UniProt Q96P20); assay: THP-1 cells pyroptosis assay; type: cell-based; parameters: Seed THP-1 cells (25,000 cells/well) containing 1.0 μg/ml LPS; host or cells: THP-1 cells; conditions: LPS 1 μg/ml, nigericin 5 μM, resazurin readout
Description: The cells were routinely passaged and grown to confluency (˜10^6 cells/ml). On the day of the experiment, THP-1 cells were harvested and resuspended into RPMI medium (without FBS). The cells were then counted and viability (>90%) checked by Trypan blue (Sigma #T8154). […] To this diluted cell solution was added LPS (Sigma #L4524) to give a 1 μg/ml Final Assay Concentration (FAC). 40 μl of the final preparation was aliquoted into each well of a 96-well plate. The plate thus prepared was used for compound screening.
The following method step-by-step assay was followed for compound screening. • 1. […] Incubate for 3 hrs at 37° C., 5% CO2 • 4. Add 5 μl nigericin (Sigma #N7143) (FAC 5 μM) to all wells • 5. Incubate for 1 hr at 37° C., 5% CO2 • 6. At the end of the incubation period, spin plates at 300×g for 3 mins and remove supernatant • 7. Then add 50 μl of resazurin (Sigma #R7017) (FAC 100 μM resazurin in RPMI medium without FBS) and incubate plates for a further 1-2 hrs at 37° C. and 5% CO2 • 8. […] IC50 data is fitted to a non-linear regression equation (log inhibitor vs response-variable slope 4-parameters)

NLRP3 [2] = molecular target: T1, NLRP3; assay: Human whole blood IL-1β release assay; type: cell-based; parameters: Human whole blood in Li-heparin tubes was obtained from healthy donors; from tissue; host or cells: human whole blood from healthy donors; conditions: LPS 1 μg/ml, nigericin, IL-1β in supernatant (AlphaLisa), read-out: HWB IC50
Description: For systemic delivery, the ability to inhibit NLRP3 when the compounds are present within the bloodstream is of great importance. For this reason, the NLRP3 inhibitory activity of a number of compounds in human whole blood was investigated in accordance with the following protocol.
Human whole blood in Li-heparin tubes was obtained from healthy donors from a volunteer donor panel. • 1. […] Incubate for 3 hrs at 37° C., 5% CO2 • 4. Add 1 μl nigericin (Sigma #N7143) ([…]) to all wells • 5. Incubate for 1 hr at 37° C., 5% CO2 • 6. At the end of the incubation period, spin plates at 300×g for 5 mins to pellet cells and remove 20 μl of supernatant and add to 96-well v-bottom plates for IL-1β analysis (note: these plates containing the supernatants can be stored at −80° C. to be analysed at a later date) • 7. IL-1β was measured according to the manufacturer protocol (Perkin Elmer-AlphaLisa IL-1 Kit AL220F-5000) • 8. IC50 data is fitted to a non-linear regression equation (log inhibitor vs response-variable slope 4-parameters)

T1 sequence (Q96P20 whole entry): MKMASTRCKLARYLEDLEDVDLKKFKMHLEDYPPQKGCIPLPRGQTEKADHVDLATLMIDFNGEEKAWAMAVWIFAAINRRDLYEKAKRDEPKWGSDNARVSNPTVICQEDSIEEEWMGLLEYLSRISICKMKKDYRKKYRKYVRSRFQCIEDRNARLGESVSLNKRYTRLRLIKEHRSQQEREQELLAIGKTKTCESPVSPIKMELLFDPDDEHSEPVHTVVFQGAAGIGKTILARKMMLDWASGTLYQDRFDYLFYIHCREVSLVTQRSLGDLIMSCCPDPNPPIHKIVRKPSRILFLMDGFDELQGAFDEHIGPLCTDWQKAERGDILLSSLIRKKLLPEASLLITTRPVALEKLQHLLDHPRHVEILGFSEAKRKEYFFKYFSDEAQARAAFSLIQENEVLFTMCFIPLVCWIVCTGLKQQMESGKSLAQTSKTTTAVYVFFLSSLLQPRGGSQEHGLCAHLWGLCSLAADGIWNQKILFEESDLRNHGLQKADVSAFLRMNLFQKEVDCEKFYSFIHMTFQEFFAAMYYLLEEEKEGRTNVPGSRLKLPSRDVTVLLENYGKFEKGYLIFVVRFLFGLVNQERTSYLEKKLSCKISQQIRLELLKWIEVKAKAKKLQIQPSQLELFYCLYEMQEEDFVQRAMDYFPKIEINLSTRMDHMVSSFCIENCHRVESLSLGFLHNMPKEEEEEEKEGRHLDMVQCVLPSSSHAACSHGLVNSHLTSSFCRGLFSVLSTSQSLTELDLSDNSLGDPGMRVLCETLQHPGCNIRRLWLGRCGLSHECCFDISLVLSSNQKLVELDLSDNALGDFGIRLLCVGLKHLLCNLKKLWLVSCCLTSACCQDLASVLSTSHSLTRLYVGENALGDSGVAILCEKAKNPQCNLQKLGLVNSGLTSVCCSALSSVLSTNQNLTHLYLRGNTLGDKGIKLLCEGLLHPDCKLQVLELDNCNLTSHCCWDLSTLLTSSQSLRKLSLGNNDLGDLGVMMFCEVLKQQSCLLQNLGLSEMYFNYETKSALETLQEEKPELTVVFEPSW

Row | Compound | IC50 (NLRP3 [1]) [nM] | IC50 (NLRP3 [2]) [nM]
1 | Cc1cc2c(c(NC(=O)NS(C)(=O)=O)c1-c1ccnc(O[C@H]3CC[C@H](N(C)C)CC3)c1)CCC2 [Example 46] | ≤ 250 | ≤ 250
2 | CN(C)CC(C)(C)n1ccc(S(=O)(=O)NC(=O)Nc2c(-c3ccnc(OC4CC4)c3)ccc3c2CCO3)n1 [Example 64, N-((5-(2-Cyclopropoxypyridin-4-yl)-2,3-dihydrobenzofuran-4-yl)carbamoyl)-1-(1-(dimethylamino)-2-methylpropan-2-yl)-1H-pyrazole-3-sulfonamide] | ≤ 250 | 250 to 500
3 | CC(C)n1ccc(S(=O)(=O)NC(=O)Nc2c(-c3ccnc(C4CC4)c3)ccc3c2CCC3)n1 [Example 69] | ≤ 250 | 500 to 1000
4 | CN1CCC(COc2cc(-c3ccc4c(c3NC(=O)NS(C)(=O)=O)CCC4)ccn2)CC1 [Example 27] | 1000 to 2000 | 500 to 1000
5 | CC(C)n1ccc(S(=O)(=O)NC(=O)Nc2c(-c3ccnc(OC4CCOC4)c3)ccc3c2CCC3)n1 (stereo not drawn) [Example 70] | ≤ 250 | 500 to 1000
6 | C=CCN1CCC(Oc2cc(-c3ccc4c(c3NC(=O)NS(=O)(=O)CC=C)CCC4)ccn2)CC1 [Example 59, N-((5-(2-((1-Allylpiperidin-4-yl)oxy)pyridin-4-yl)-2,3-dihydro-1H-inden-4-yl)carbamoyl)prop-2-ene-1-sulfonamide] | ≤ 250 | 1000 to 2000
7 | CC(C)c1cc(F)cc(-c2ccnc(OC3CCN(C)CC3)c2)c1NC(=O)NS(C)(=O)=O [Example 43] | 500 to 1000 | ≤ 250
8 | CN1CCC(Oc2cc(-c3cc(F)cc(C4CCCC4)c3NC(=O)NS(C)(=O)=O)ccn2)CC1 [Example 41] | ≤ 250 | 1000 to 2000
9 | CN1CCC(Oc2cc(-c3cc(F)cc(C4CCCCC4)c3NC(=O)NS(C)(=O)=O)ccn2)CC1 [Example 39] | ≤ 250 | 1000 to 2000
10 | COc1cc(-c2cc(F)cc(C(C)C)c2NC(=O)NS(=O)(=O)c2ccn(C(C)C)n2)cc(C)n1 [comp ex 2, reference compound] | 2000 to 5000 | –
11 | CS(=O)(=O)NC(=O)Nc1c(-c2ccnc(OC3CCN(C4CC4)CC3)c2)ccc2c1CCC2 [Example 22] | ≤ 250 | 2000 to 5000
12 | CN1CCC(Oc2cc(-c3ccc4c(c3NC(=O)NS(C)(=O)=O)CCC4)ccn2)CC1 [Example 35] | ≤ 250 | ≤ 250
13 | Cc1cc2c(c(NC(=O)NS(C)(=O)=O)c1-c1ccnc(OC3CCOC3)c1)CCC2 (stereo not drawn) [Example 53] | ≤ 250 | 250 to 500
14 | Cc1cc2c(c(NC(=O)NS(=N)(=O)c3ccccc3)c1-c1ccnc(OC3CCN(C)CC3)c1)CCC2 (stereo not drawn) [Example 79, N-((6-Methyl-5-(2-((1-methylpiperidin-4-yl)oxy)pyridin-4-yl)-2,3-dihydro-1H-inden-4-yl)carbamoyl)benzenesulfonimidamide] | ≤ 250 | 1000 to 2000
15 | Cc1c(-c2ccc3c(c2NC(=O)NS(C)(=O)=O)CCC3)ccnc1OC1CCN(C)CC1 [Example 15] | 250 to 500 | 250 to 500
16 | O=C(Nc1c(-c2ccnc(OC3CC3)c2)ccc2c1CCO2)NS(=O)(=O)c1ccn(C2CC2)n1 [Example 71] | ≤ 250 | 500 to 1000
17 | CC(C)c1cc(F)cc(-c2ccnc(N(C)C)c2)c1NC(=O)NS(=O)(=O)c1ccn(C(C)C)n1 [comp ex 3, reference compound] | 2000 to 5000 | –
18 | CN(C)CC(C)(C)n1ccc(S(=O)(=O)NC(=O)Nc2c(-c3ccnc(OC4CC4)c3)ccc3c2CCC3)n1 [Example 66] | ≤ 250 | 250 to 500
19 | CN1CCC(Oc2cc(-c3ccc4c(c3NC(=O)N=S(N)(=O)c3ccccc3)CCC4)ccn2)CC1 (stereo not drawn) [Example 78, N′-((5-(2-((1-Methylpiperidin-4-yl)oxy)pyridin-4-yl)-2,3-dihydro-1H-inden-4-yl)carbamoyl)benzenesulfonimidamide] | ≤ 250 | 2000 to 5000
20 | CC(C)n1ccc(S(=O)(=O)NC(=O)Nc2c(-c3ccnc(Oc4ccccc4)c3)ccc3c2CCC3)n1 [Example 77] | ≤ 250 | 5000 to 10000

Row | Compound | IC50 (NLRP3 [1]) [nM] | IC50 (NLRP3 [2]) [nM]
21 | CC(C)n1ccc(S(=O)(=O)NC(=O)Nc2c(-c3ccnc(OC4CCC4)c3)ccc3c2CCC3)n1 [Example 75] | ≤ 250 | 1000 to 2000
22 | Cc1cc2c(c(NC(=O)NS(C)(=O)=O)c1-c1ccnc(OCC3CCCN(C)C3)c1)CCC2 (stereo not drawn) [Example 47] | ≤ 250 | ≤ 250
23 | CO[C@H]1CC[C@@H](Oc2cc(-c3c(C)cc4c(c3NC(=O)NS(C)(=O)=O)CCC4)ccn2)CC1 [Example 55] | ≤ 250 | 500 to 1000
24 | CC(C)n1ccc(S(=O)(=O)NC(=O)Nc2c(-c3ccnc(OC4CCN(C)CC4)c3)ccc3c2CCC3)n1 [Example 68, i-Isopropyl-N-((5-(2-((1-methylpiperidin-4-yl)oxy)pyridin-4-yl)-2,3-dihydro-1H-inden-4-yl)carbamoyl)-1H-pyrazole-3-sulfonamide] | ≤ 250 | 250 to 500
25 | CO[C@H]1CC[C@H](Oc2cc(-c3c(C)cc4c(c3NC(=O)NS(C)(=O)=O)CCC4)ccn2)CC1 [Example 54] | ≤ 250 | 500 to 1000
26 | CC(C)n1ccc(S(=O)(=O)NC(=O)Nc2c(-c3ccnc(OC4CCOCC4)c3)ccc3c2CCC3)n1 [Example 73] | ≤ 250 | 500 to 1000
27 | Cc1cc2c(c(NC(=O)NS(C)(=N)=O)c1-c1ccnc(OC3CCN(C)CC3)c1)CCC2 (stereo not drawn) [Example 80, N-((6-Methyl-5-(2-((1-methylpiperidin-4-yl)oxy)pyridin-4-yl)-2,3-dihydro-1H-inden-4-yl)carbamoyl)methanesulfonimidamide] | ≤ 250 | 500 to 1000
28 | CC(C)n1ccc(S(=O)(=O)NC(=O)Nc2c(-c3ccnc(OC4CCN(C)C4)c3)ccc3c2CCC3)n1 (stereo not drawn) [Example 76] | 500 to 1000 | –
29 | CN(C)C1CCC(Oc2cc(-c3ccc4c(c3NC(=O)NS(C)(=O)=O)CCC4)ccn2)CC1 (stereo not drawn) [Example 29] | ≤ 250 | ≤ 250
30 | O=C(Nc1c(-c2ccnc(OC3CC3)c2)ccc2c1CCO2)NS(=O)(=O)c1ccn(C2CCC2)n1 [Example 67] | ≤ 250 | 500 to 1000
31 | CC(C)n1ccc(S(=O)(=O)NC(=O)Nc2c(-c3ccnc(OC4CCCOC4)c3)ccc3c2CCC3)n1 (stereo not drawn) [Example 74] | ≤ 250 | 1000 to 2000
32 | CN1CCC(Oc2cc(-c3cc(F)cc(-c4ccccc4)c3NC(=O)NS(C)(=O)=O)ccn2)CC1 [Example 42] | 1000 to 2000 | 1000 to 2000
33 | O=C(Nc1c(-c2ccnc(OC3CC3)c2)ccc2c1CCC2)NS(=O)(=O)c1ccn(C2CC2)n1 [Example 72] | ≤ 250 | 1000 to 2000
34 | CO[C@H]1CC[C@@H](Oc2cc(-c3ccc4c(c3NC(=O)NS(C)(=O)=O)CCC4)ccn2)CC1 [Example 1, N-((5-(2-(((1s,4s)-4-Methoxycyclohexyl)oxy)pyridin-4-yl)-2,3-dihydro-1H-inden-4-yl)carbamoyl)methanesulfonamide] | ≤ 250 | 1000 to 2000
35 | CC1CC(Oc2cc(-c3ccc4c(c3NC(=O)NS(C)(=O)=O)CCC4)ccn2)CCO1 (stereo not drawn) [Example 8] | 250 to 500 | 1000 to 2000
36 | CS(=O)(=O)NC(=O)Nc1c(-c2ccnc(OC3CCN(Cc4ccccc4)CC3)c2)ccc2c1CCC2 [Example 19] | ≤ 250 | 1000 to 2000
37 | CS(=O)(=O)NC(=O)Nc1c(-c2ccnc(OC3CCOCC3)c2)ccc2c1CCC2 [Example 33] | 250 to 500 | 1000 to 2000
38 | CC(C)(CN1CCC1)n1ccc(S(=O)(=O)NC(=O)Nc2c(-c3ccnc(OC4CC4)c3)ccc3c2CCC3)n1 [Example 65] | ≤ 250 | 250 to 500
39 | CS(=O)(=O)NC(=O)Nc1c(-c2ccnc(O[C@H]3CC[C@@](C)(O)CC3)c2)ccc2c1CCC2 [Example 4] | ≤ 250 | 250 to 500
